Measurements from US20130156753A1 (UNIVERSITY OF ROCHESTER, priority 2010, published 2013).

Columns and labels:
HDAC5 nuclear export = experiment: PE-induced HDAC5 nuclear export in neonatal rat ventricular cardiomyocytes (NRVMs); assay type: cell-based
Description: A, B, Cos7 cells were co-transfected with expression vectors encoding GFP-tagged HDAC5 (GFP-HDAC5) and constitutively active protein kinases as indicated, and then exposed to phorbol-12-myristate-13-acetate (PMA, […]) for 3 hours. […] A-F, The cells were fixed and the subcellular localization of GFP-HDAC5 was visualized by fluorescence microscopy.
(§1) The cells were fixed and GFP-HDAC5 localization was analyzed by fluorescence microscopy. α-actinin was detected by immunofluorescence using an antibody against α-actinin and a fluorescein-conjugated secondary antibody. The nuclei were stained with DAPI.
as §1, with “DAPI. B, PKA expression in cell lysates were determined by Western blot using PKA antibody.” for “DAPI.”
The cells were fixed and endogenous HDAC5 localization was analyzed by fluorescence microscopy. HDAC5 and α-actinin was detected by immunocytochemistry with antibody against HDAC5 and α-actinin.
The cells were fixed and GFP-HDAC5 subcellular localization was analyzed by fluorescence microscopy and stained with an α-actinin antibody and DAPI.
Cos7 cells were grown in Dulbecco's Modified Eagle's Medium (DMEM) supplemented with fetal bovine serum (10%), 1-glutamine and penicillin/streptomycin. Primary cultures of neonatal rat cardiac ventricular myocytes (NRVMs) from 1- to 2-day-old Sprague-Dawley rats (Charles River Laboratories) were prepared. In brief, NRVMs were dispersed from the ventricles by digestion with collagenase type II (Worthington). Cells were cultured in Dulbecco's modified Eagle's medium (DMEM) supplemented with 1,000 mg/L D-glucose, L-glutamine, and 110 mg/L sodium pyruvate (GIBCO), fetal bovine serum (10%), and penicillin/streptomycin at 37° C. in a 5% CO2 humidified atmosphere for 2-3 days. For inducer or inhibitor studies, cells were pretreated with various inducers or inhibitors for 30 min in serum-free medium. Primary cultures of adult rat cardiomyocytes were prepared from 200-250g male Sprague-Dawley rats. Briefly, rats were anesthetized, hearts excised and placed in Krebs buffer and perfused and digested with endotoxin-free collagenase II (Worthington). This protocol typically yielded approximately 4×10^6 cells per heart, with ˜85% surviving, rod-shaped Ca2+-tolerant cells. Myocytes were allowed to attach to 20 μg/ml laminin coated plates in Modified Eagle Medium (MEM) containing 2.5% FBS, 25 mmol/L HEPES, 5 mmol/L taurine, 2 mmol/L carnitine, 2 mmol/L creatinine, 100 IU/ml penicillin, and 100 μg/ml streptomycin for 2 hrs before replacing with serum-free MEM containing 25 mmol/L HEPES, 5 mmol/L taurine, 2 mmol/L carnitine, 2 mmol/L creatinine, 100 IU/ml penicillin, and 100 μg/ml streptomycin.
Adenoviruses encoding Flag-tagged HDAC5 wild-type (WT), GFP-tagged HDAC5-WT, and YFP-tagged HDAC7-WT were generated as described previously (Ha C H, et al. (2008) Protein Kinase D-dependent Phosphorylation and Nuclear Export of Histone Deacetylase 5 Mediates Vascular Endothelial Growth Factor-induced Gene Expression and Angiogenesis. J Biol Chem 283(21):14590-14599; Ha C H et al. (2008) VEGF stimulates HDAC7 phosphorylation and cytoplasmic accumulation modulating matrix metalloproteinase expression and angiogenesis. Arterioscler Thromb Vasc Biol 28(10):1782-1788). Adenovirus expressing GFP-tagged HDAC5-S280A mutant, GFP-tagged HDAC5-S280D mutant and Flag-tagged HDAC5-S280A mutant were generated by using ViraPower Adenoviral Expression System (Invitrogen) according to the manufacturer's protocol. Adenovirus containing β-galactosidase (LacZ) or GFP was used as a control. […]

NRVMs = experiment: Cardiomyocyte hypertrophy (cell size, α-actinin immunostaining) in NRVMs; assay type: cell-based, rat
Excerpt: A-H, Cardiomyocyte size was detected by immunostaining with anti-α-actinin antibody. […] The cells were fixed and analyzed for GFP-HDAC5 localization, α-actinin staining and nuclear DAPI staining *, p<0.05 versus without PE; #, p<0.05 versus with PE alone. I, Schematic model for PKA-dependent regulation of HDAC5 subcellular localization and gene transcription.
Cardiomyocyte protein marker α-actinin was detected by immunofluorescence using antibody against α-actinin and fluorescein-conjugated secondary antibody.
After 24 hour culture, cells were maintained in serum-free DMEM medium for additional 24 hours, and then exposed to various inducers or inhibitors (for 30 minutes) prior to PE or PMA stimulation for indicated times. The cells were washed with PBS and fixed with 3.7% formaldehyde in PBS. Images were captured at a magnification of ×60, using a fluorescence microscope (Olympus BX51) equipped with a digital camera and Spot software system (RT Color Diagnostic Instruments). For analysis of the myocyte marker, sarcomeric α-actinin antibody and DAPI in neonatal cardiomyocyte, immunocytochemistry were performed according to a standard protocol. For subcellular localization of endogenous HDAC5 in cardiomyocyes, we fixed cells and used the detergent Saponin (Sigma, 84510) to make cells permeable, and then performed immunocytochemistry with anti-HDAC5 antibody (Santa Cruz, sc-11419). For subcellular localization of HDAC5, total around 200 cells were counted in each condition. For cardiomyocyte size, total myocyte surface areas were calculated using NIH Image J software, and expressed as the average of 100 randomly selected cells per condition.

[1] = system: ANF, β-MHC, α-SMA expression; experiment: RT-PCR of cardiac fetal gene expression in NRVMs; assay type: cell-based, rat; settings: PE 24 hours
Description: The mRNA was extracted from the cell lysates and then RT-PCR with the primers for ANF, β-MHC, α-SMA, and GADPH (internal control) was performed. *, p<0.05 versus PE+Ad-GFP; #, p<0.05 versus PE+GFP-HDAC5-WT, n=4.
The mRNA was extracted from the cell lysates, and quantitative RT-PCR with the primers for ANF and GADPH (internal control) were performed as described in the Examples. Quantitative data are shown (n=4).
Total RNA was isolated from NRVM using TRIzol (Invitrogen Corp.). Firststrand cDNA was synthesized with the SuperScript Preamplification System (Gibco-BRL). cDNA was amplified by PCR for 30 cycle (Applied Biosystem) as described previously (4, 5). Rat GAPDH served as an internal control. The following oligonucleotide primers were used in this study: rat ANF, sense 5′-[…]-3′ (SEQ ID NO:11) and antisense 5′-[…]-3′(SEQ ID NO:12) rat α-SMA, sense 5′-[…]-3′ (SEQ ID NO:13) and antisense 5′-[…]-3′ (SEQ ID NO:14); rat β-MHC (myosin heavy chain), sense 5′-[…]-3′ (SEQ ID NO:15) and antisense 5′-[…]-3′ (SEQ ID NO:16); rat GAPDH, sense 5′-[…]-3′ (SEQ ID NO:17) and antisense 5′-[…]-3′ (SEQ ID NO:18). Experiments were repeated three times.

[2] = NRVMs with GFP-HDAC5-WT, cAMP 30 min, PE 24 hours

## CCCC(=O)Nc1ncnc2c1ncn2[C@@H]1O[C@@H]2COP(=O)(O)O[C@H]2[C@H]1OC(=O)CCC [cAMP, Dibutyryl-cAMP]
HDAC5 nuclear export; [2]
  HDAC5 translocation from nucleus to cytoplasm after PE: prevented from translocating from the nucleus to the cytoplasm
HDAC5 nuclear export; NRVMs, S280A mutant, cAMP 500 μM or forskolin 10 μM 30 min, PE 3 hours
  PE-induced nuclear export of GFP-HDAC5 S280A: resistant to PKA inhibition
HDAC5 nuclear export; NRVMs, adenoviral GFP-HDAC5, 30 min pretreatment, PE 10 μM 3 hours
  PE-stimulated HDAC5 nuclear export: markedly inhibited PE-stimulated HDAC5 nuclear export
HDAC5 nuclear export; NRVMs, endogenous HDAC5, cAMP 500 μM 30 min, PE 10 μM 3 hours
  PE-induced endogenous HDAC5 nuclear export: same inhibitory effect
NRVMs; [2]
  size of cardiomyocytes after PE: decreased the size of cardiomyocytes
NRVMs; NRVMs, forskolin 10 μM, cAMP 500 μM, Rolipram 10 μM 30 min, PE or Angiotensin II 24 hours
  PE/Angiotensin II-induced cardiomyocyte hypertrophy: inhibit PE/Angiotensin II-induced cardiomyocyte hypertrophy
[1]; NRVMs with GFP-HDAC5-WT, cAMP pretreatment
  PE-elevated expression of ANF, β-MHC and α-SMA: blocked this elevated gene expression
[1]; NRVMs, cAMP 30 min
  PE-induced ANF expression (quantitative RT-PCR): decreases PE-induced ANF expression
